Assay results taken from ChEMBL document CHEMBL1137905, “Synthesis of anilino-monoindolylmaleimides as potent and selective PKCbeta inhibitors” (Bioorg Med Chem Lett, 2004).

Experiments:
[1] = molecular target: T1, Protein kinase C beta type (Homo sapiens, UniProt P05771); assay: Inhibitory concentration against recombinant human Protein kinase C beta 2
[2] = molecular target: T2, Protein kinase C epsilon type (Homo sapiens, UniProt Q02156); assay: Inhibitory concentration against recombinant human Protein kinase C epsilon
T2 sequence (Q02156 whole entry): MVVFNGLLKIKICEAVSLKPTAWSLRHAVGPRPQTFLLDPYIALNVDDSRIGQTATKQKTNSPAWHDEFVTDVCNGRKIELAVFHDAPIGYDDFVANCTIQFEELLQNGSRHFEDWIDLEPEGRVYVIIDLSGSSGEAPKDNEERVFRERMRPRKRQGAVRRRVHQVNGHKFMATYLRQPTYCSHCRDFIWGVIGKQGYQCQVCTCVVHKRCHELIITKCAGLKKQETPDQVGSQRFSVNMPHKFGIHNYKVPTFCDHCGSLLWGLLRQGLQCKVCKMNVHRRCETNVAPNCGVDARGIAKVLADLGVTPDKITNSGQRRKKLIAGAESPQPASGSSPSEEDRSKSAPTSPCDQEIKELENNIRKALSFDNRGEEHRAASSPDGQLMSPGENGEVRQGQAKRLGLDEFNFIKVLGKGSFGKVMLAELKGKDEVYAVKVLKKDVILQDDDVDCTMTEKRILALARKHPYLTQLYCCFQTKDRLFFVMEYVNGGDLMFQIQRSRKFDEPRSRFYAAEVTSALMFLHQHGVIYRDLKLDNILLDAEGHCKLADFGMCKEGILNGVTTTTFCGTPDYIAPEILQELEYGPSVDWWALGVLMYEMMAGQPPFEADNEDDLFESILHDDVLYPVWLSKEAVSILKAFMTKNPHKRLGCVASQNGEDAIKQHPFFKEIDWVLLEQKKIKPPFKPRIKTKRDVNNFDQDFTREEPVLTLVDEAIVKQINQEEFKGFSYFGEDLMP

[3] = molecular target: T1, Protein kinase C beta type; assay: Inhibitory concentration against recombinant human Protein kinase C beta 1
[4] = molecular target: Protein kinase C alpha type (Homo sapiens, UniProt P17252); assay: Inhibitory concentration against recombinant human Protein kinase C alpha

T1 sequence (P05771 whole entry): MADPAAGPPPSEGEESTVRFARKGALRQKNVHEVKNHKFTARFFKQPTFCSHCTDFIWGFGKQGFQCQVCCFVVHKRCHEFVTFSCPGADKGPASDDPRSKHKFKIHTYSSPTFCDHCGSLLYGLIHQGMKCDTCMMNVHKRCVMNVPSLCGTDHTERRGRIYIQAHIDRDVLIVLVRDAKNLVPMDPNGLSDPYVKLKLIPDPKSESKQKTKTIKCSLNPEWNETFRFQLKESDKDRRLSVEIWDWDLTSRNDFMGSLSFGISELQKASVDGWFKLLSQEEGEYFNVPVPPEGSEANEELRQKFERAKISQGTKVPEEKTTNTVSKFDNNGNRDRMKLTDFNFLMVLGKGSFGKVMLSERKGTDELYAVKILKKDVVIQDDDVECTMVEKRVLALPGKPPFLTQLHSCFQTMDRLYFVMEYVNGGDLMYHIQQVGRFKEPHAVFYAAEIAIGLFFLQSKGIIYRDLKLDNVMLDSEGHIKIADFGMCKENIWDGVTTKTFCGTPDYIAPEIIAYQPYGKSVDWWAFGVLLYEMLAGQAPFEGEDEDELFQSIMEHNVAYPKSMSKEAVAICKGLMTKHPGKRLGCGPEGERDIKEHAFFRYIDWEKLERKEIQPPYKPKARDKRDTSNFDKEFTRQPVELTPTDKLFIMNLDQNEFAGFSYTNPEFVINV

IC50 [1]	IC50 [2]	SMILES	other results
2450 nM		O=C1NC(=O)C(c2c[nH]c3ccccc23)=C1NC1CCCCC1	
	3460 nM	Cc1cccc(NC2=C(c3cn(CCCN(C)C)c4ccccc34)C(=O)NC2=O)c1	
1450 nM		O=C1NC(=O)C(c2c[nH]c3ccccc23)=C1Nc1cccc(C(F)(F)F)c1	
	3420 nM	O=C1NC(=O)C(c2cn(CCCN3CCCCC3)c3ccccc23)=C1Nc1ccccc1	
480 nM		Cc1ccc(NC2=C(c3c[nH]c4ccccc34)C(=O)NC2=O)cc1	
2150 nM		Cc1ccccc1NC1=C(c2c[nH]c3ccccc23)C(=O)NC1=O	
	2610 nM	CN(C)CCCn1cc(C2=C(Nc3cccc(Cl)c3)C(=O)NC2=O)c2ccccc21	
	> 10000 nM	CN(C)CCn1cc(C2=C(Nc3ccccc3)C(=O)NC2=O)c2ccccc21	
747 nM		COc1cccc(NC2=C(c3c[nH]c4ccccc34)C(=O)NC2=O)c1	
	> 10000 nM	O=C1NC(=O)C(c2c[nH]c3ccccc23)=C1Nc1ccccc1	IC50 [3]: 395 nM
	5870 nM	CN(C)CCCCn1cc(C2=C(Nc3ccccc3)C(=O)NC2=O)c2ccccc21	
> 10000 nM		O=C1NC(=O)C(c2c[nH]c3ccccc23)=C1NCc1ccccc1	
41 nM	3900 nM	CN(C)CCCCCn1cc(C2=C(Nc3ccccc3)C(=O)NC2=O)c2ccccc21	IC50 [4]: 2230 nM
939 nM		CN(C1=C(c2c[nH]c3ccccc23)C(=O)NC1=O)c1ccccc1	
	3460 nM	CN(C)CCCn1cc(C2=C(Nc3ccccc3)C(=O)NC2=O)c2ccccc21	
2860 nM		CC(C)c1cccc(NC2=C(c3c[nH]c4ccccc34)C(=O)NC2=O)c1	
	58 nM	N=C(N)SCCCn1cc(C2=C(Nc3ccccc3)C(=O)NC2=O)c2ccccc21	
	6320 nM	O=C1NC(=O)C(c2cn(CCCO)c3ccccc23)=C1Nc1ccccc1	
	2810 nM	O=C1NC(=O)C(c2cn(CCCn3ccnc3)c3ccccc23)=C1Nc1ccccc1	IC50 [3]: 21 nM
	> 10000 nM	CN1CCN(CCCn2cc(C3=C(Nc4ccccc4)C(=O)NC3=O)c3ccccc32)CC1	
212 nM	7520 nM	O=C1NC(=O)C(c2c[nH]c3ccccc23)=C1c1c[nH]c2ccccc12 [RO-316233]	IC50 [3]: 304 nM; IC50 [4]: 1600 nM
	> 10000 nM	O=C1NC(=O)C(c2cn(CCCN3CCCC3)c3ccccc23)=C1Nc1ccccc1	
